Data: patent US20230212131A1, “COLLAGEN 1 TRANSLATION INHIBITORS AND METHODS OF USE THEREOF” (Anima Biotech Inc., priority 2020, published 2023)

Columns and labels:
Collagen type-I = Collagen type-I immunofluorescence and Col-I mRNA FISH in WI-38 Human Lung Fibroblasts (FIG. 4); assay type: cell-based; details: 96 hours incubation (immunofluorescence), 24 hours incubation (FISH of Col-I mRNA)
Method: FIG. 4A: WI-38 Human Lung Fibroblasts, 96 hours incubation with compounds. White: Collagen type-I; Gray: DAPI. Immunofluorescence. FIG. 4B: WI-38 Human Lung Fibroblasts, 24 hours incubation with compounds. FISH analysis. White: Col-I mRNA; Gray: DAPI.
Cells in 96-well or 384-well plates were fixed for 20 min in 4% paraformaldehyde (PFA, ENCO, Cat. sc-281692). Following two washes with 1×PBS, cells were treated with hydrogen peroxide (Acros, Cat: 7722-84-1) for 10 minutes and then washed twice with 1×PBS. Cells were then incubated over-night at 4° C. with Anti-Collagen I (Sigma-Aldrich, Cat: C 2456) antibody and washed three times with 1×PBS. […]
Cell images were taken with Operetta (Perkin Elmer, USA), a wide-field fluorescence microscope at 20× magnification. […] In Columbus, cells were identified by their nucleus, using the “Find Nuceli” module and cytoplasm was detected based on the secondary antibody channel. […]
Following RNA FISH experiments, images of cells were taken with Operetta (Perkin Elmer, USA), a wide-field fluorescence microscope at 20× magnification. […] In Columbus, cells were identified by their nucleus, using the “Find Nuceli” module, cytoplasm was detected based on the FISH-channel, and single mRNAs in the cytoplasm and transcription sites in the nucleus were detected using “Find Spots” module. […]

Collagen translation = assay: Tissue selectivity of collagen translation modulator (FIG. 3); assay type: cell-based
Method: Primary human pulmonary fibroblasts (HPF, PromoCell C-12360) were maintained in fibroblast growth medium 2 (PromoCell C-23020) according to manufacture instruction. Collagen synthesis was inducted using the same cocktail as for the WI-38 cells.
Primary human dermal fibroblasts (HDF) (PromoCell C-12302) were maintained in PromoCell's proprietary Fibroblast Growth Medium 2 (ready-to-use, Cat. C-23020). For collagen synthesis induction, cells were seeded on experimental plates for 24 hours followed by addition of collagen induction cocktail. Tested compounds were added together with induction.

collagen 1 (COL1) = assay: WI-38 collagen 1 inhibition assay; assay type: cell-based, human; details: Cellular EC50, WI-38 cells; values are classes of LogEC50
Outline: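 WI-38 fibroblasts serum-starved (0.25% FBS 2 h, then none 24 h), then given a collagen induction cocktail together with compound. Cells fixed, immunostained for collagen I with DAPI counterstain, and imaged at 20×; per-cell fluorescence quantified by image analysis.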

SMILES: O=C(Nc1nc(-c2ccccc2Cl)cs1)c1ccc(N2CCOCC2)cc1 [compound 327, N-[4-(2-chlorophenyl)thiazol-2-yl]-4-morpholino-benzamide]
- level of action on collagen synthesis (Collagen type-I): act at the level of translation
- tissue selectivity (Collagen translation): tissue selective
- COL1 Efficacy (LogEC50) (collagen 1 (COL1)): +++ (+++: <−6)
